In PubChem BioAssay (NCI):
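Compound exposure: 48 hours, 5 concentrations, 96-well plates. The concentration for 50% growth inhibition is given as GI50. Definition used: TGI = concentration required for complete inhibition of growth.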

Key:
Assay in all cases: NCI tumour cell line growth inhibition, 48 h
RXF 393 renal = tested on: RXF 393 renal
HOP-92 NSCLC = tested on: HOP-92 NSCLC
MDA-MB-468 breast = tested on: MDA-MB-468 breast
SF-295 CNS = tested on: SF-295 CNS
A498 renal = tested on: A498 renal
LOX IMVI melanoma = tested on: LOX IMVI melanoma
SK-MEL-2 melanoma = tested on: SK-MEL-2 melanoma
SK-MEL-5 melanoma = tested on: SK-MEL-5 melanoma
MDA-MB-435 = tested on: MDA-MB-435
EKVX NSCLC = tested on: EKVX NSCLC
786-0 renal = tested on: 786-0 renal
HCT-15 colon = tested on: HCT-15 colon
K-562 leukemia = tested on: K-562 leukemia
BT-549 breast = tested on: BT-549 breast
SW-620 colon = tested on: SW-620 colon
SK-OV-3 ovarian = tested on: SK-OV-3 ovarian
OVCAR-5 ovarian = tested on: OVCAR-5 ovarian
HS 578T breast = tested on: HS 578T breast
NCI-H522 lung = tested on: NCI-H522 lung
UACC-257 melanoma = tested on: UACC-257 melanoma
COLO 205 colon = tested on: COLO 205 colon
NCI-H226 lung = tested on: NCI-H226 lung
NCI-H460 lung = tested on: NCI-H460 lung
HCC-2998 colon = tested on: HCC-2998 colon
SF-539 CNS = tested on: SF-539 CNS
PC-3 prostate = tested on: PC-3 prostate
MCF7 breast = tested on: MCF7 breast
SN12C renal = tested on: SN12C renal
U251 CNS = tested on: U251 CNS
OVCAR-8 ovarian = tested on: OVCAR-8 ovarian
KM12 colon = tested on: KM12 colon
MALME-3M melanoma = tested on: MALME-3M melanoma
SF-268 CNS = tested on: SF-268 CNS
CCRF-CEM leukemia = tested on: CCRF-CEM leukemia
RPMI-8226 leukemia = tested on: RPMI-8226 leukemia
CAKI-1 renal = tested on: CAKI-1 renal
HT29 colon = tested on: HT29 colon
UACC-62 melanoma = tested on: UACC-62 melanoma
NCI-H23 lung = tested on: NCI-H23 lung
HL-60(TB) leukemia = tested on: HL-60(TB) leukemia
M14 melanoma = tested on: M14 melanoma
HOP-62 NSCLC = tested on: HOP-62 NSCLC
IGROV1 ovarian = tested on: IGROV1 ovarian
SK-MEL-28 melanoma = tested on: SK-MEL-28 melanoma
OVCAR-4 ovarian = tested on: OVCAR-4 ovarian
MOLT-4 leukemia = tested on: MOLT-4 leukemia
OVCAR-3 ovarian = tested on: OVCAR-3 ovarian
SNB-75 CNS = tested on: SNB-75 CNS
HCT-116 colon = tested on: HCT-116 colon
DU-145 prostate = tested on: DU-145 prostate
A549 NSCLC = tested on: A549 NSCLC
ACHN renal = tested on: ACHN renal
TK-10 renal = tested on: TK-10 renal

## C=C1CC[C@@H]2[C@]3(C)COC(c4cn[nH]c4-c4cccc(Cl)c4)O[C@@H]3CC[C@@]2(C)[C@@H]1C/C=C1/C(=O)OCC1O (stereo partly specified)
RXF 393 renal
  GI50: 1.73 µM
  TGI: 3.24 µM
HOP-92 NSCLC
  GI50: 4.29 µM
  TGI: 22.3 µM
MDA-MB-468 breast
  GI50: 1.88 µM
  TGI: 4.97 µM
SF-295 CNS
  GI50: 4.27 µM
  TGI: 16.1 µM
A498 renal
  GI50: 18.5 µM
  TGI: 32.6 µM
LOX IMVI melanoma
  GI50: 1.44 µM
  TGI: 2.83 µM
SK-MEL-2 melanoma
  GI50: 2.71 µM
  TGI: 8.53 µM
SK-MEL-5 melanoma
  GI50: 2.27 µM
  TGI: 5.37 µM
MDA-MB-435
  GI50: 2.47 µM
  TGI: 7.62 µM
EKVX NSCLC
  GI50: 3.68 µM
  TGI: 13.9 µM
786-0 renal
  GI50: 3.36 µM
  TGI: 11.7 µM
HCT-15 colon
  GI50: 1.79 µM
  TGI: 3.81 µM
K-562 leukemia
  GI50: 2.41 µM
  TGI: 10.5 µM
BT-549 breast
  GI50: 2.36 µM
  TGI: 6.03 µM
SW-620 colon
  GI50: 2.35 µM
  TGI: 5.96 µM
SK-OV-3 ovarian
  GI50: 16 µM
  TGI: 35.1 µM
OVCAR-5 ovarian
  GI50: 3.63 µM
  TGI: 14 µM
HS 578T breast
  GI50: 9.04 µM
  TGI: 62.7 µM
NCI-H522 lung
  GI50: 1.75 µM
  TGI: 3.59 µM
UACC-257 melanoma
  GI50: 11.2 µM
  TGI: 27 µM
COLO 205 colon
  GI50: 4.85 µM
  TGI: 19.5 µM
NCI-H226 lung
  GI50: 1.66 µM
  TGI: 3.21 µM
NCI-H460 lung
  GI50: 8.87 µM
  TGI: 25.6 µM
HCC-2998 colon
  GI50: 3.49 µM
  TGI: 11.5 µM
SF-539 CNS
  GI50: 1.77 µM
  TGI: 3.36 µM
PC-3 prostate
  GI50: 4.08 µM
  TGI: 30.7 µM
MCF7 breast
  GI50: 2.06 µM
  TGI: 9.16 µM
SN12C renal
  GI50: 2.94 µM
  TGI: 10.5 µM
U251 CNS
  GI50: 2.15 µM
  TGI: 5.29 µM
OVCAR-8 ovarian
  GI50: 2.39 µM
  TGI: 7.7 µM
KM12 colon
  GI50: 3.29 µM
  TGI: 13.1 µM
MALME-3M melanoma
  GI50: 1.84 µM
  TGI: 4.26 µM
SF-268 CNS
  GI50: 17.3 µM
  TGI: 41.4 µM
CCRF-CEM leukemia
  GI50: 2.7 µM
  TGI: 11.4 µM
RPMI-8226 leukemia
  GI50: 2.25 µM
  TGI: 7.02 µM
CAKI-1 renal
  GI50: 4 µM
  TGI: 14.6 µM
HT29 colon
  GI50: 2.7 µM
  TGI: 6.8 µM
UACC-62 melanoma
  GI50: 1.69 µM
  TGI: 3.62 µM
NCI-H23 lung
  GI50: 4.36 µM
  TGI: 15.9 µM
HL-60(TB) leukemia
  GI50: 2.91 µM
  TGI: 16.3 µM
M14 melanoma
  GI50: 2.19 µM
  TGI: 5.88 µM
HOP-62 NSCLC
  GI50: 15.3 µM
  TGI: 32 µM
IGROV1 ovarian
  GI50: 4.14 µM
  TGI: 15.8 µM
SK-MEL-28 melanoma
  GI50: 1.98 µM
  TGI: 4.05 µM
OVCAR-4 ovarian
  GI50: 4.4 µM
  TGI: 45.7 µM
MOLT-4 leukemia
  GI50: 3.83 µM
  TGI: 18.2 µM
OVCAR-3 ovarian
  GI50: 1.93 µM
  TGI: 3.77 µM
SNB-75 CNS
  GI50: 2.41 µM
  TGI: 12.3 µM
HCT-116 colon
  GI50: 1.84 µM
  TGI: 3.93 µM
DU-145 prostate
  GI50: 5.01 µM
  TGI: 19.5 µM
A549 NSCLC
  GI50: 9.73 µM
  TGI: 30.4 µM
ACHN renal
  GI50: 2.47 µM
  TGI: 6.95 µM
TK-10 renal
  GI50: 12.4 µM
  TGI: 25.7 µM
